{
  "source": "patent US20090263397A1",
  "about": "“Combination anti-cancer therapy” (priority 2007, published 2009)",
  "key": {"Akt [1]": {"test_system": "Akt", "experiment": "Western blotting of Akt phosphorylation, A673", "conditions": "24 hour; for Akt pathway activity / activation state, single agent: OSI-906 3 uM, Doxorubicin 500nM or 1 μM"}, "Erk": {"test_system": "Erk", "experiment": "Western blotting of Erk phosphorylation, A673", "conditions": "24 hour; for MAPK (Erk) pathway activity / activation state, single agent: OSI-906 3 uM, Doxorubicin 500nM or 1 μM"}, "IGF-1R [2]": {"test_system": "IGF-1R", "experiment": "Proteome Profiler RTK capture array, pIGF-1R in A673", "conditions": "for phosphorylation of IGF-1R, single agent: OSI-906 3 μM, Doxorubicin 500 nM, MAB391 10 ug/ml", "method": "(§1) Effect of OSI-906 (3 μM), Doxorubicin (500 nM), the combination of OSI-906+ doxorubicin, MAB391 (10 ug/ml), and the combination of MAB391+ doxorubicin on the phosphorylation states for IR and IGF-1R. Phosphorylation of IR and IGF-1R was realized using the Proteome Profiler™ RTK capture Array (R & D Systems).\n(§2) Proteome profiler arrays housing 42 different RTKs were purchased from R&D systems (Minneapolis, Minn.) and processed according to the manufacturer's protocol. RTKs included on the array include: HER1, HER2, HER3, HER4, FGFR1, FGFR2a, FGFR3, FGFR4, IR, IGF-1R, Ax1, Dtk, Mer, HGFR, MSPR, PDGFRα, PDGFRβ, SCFR, Flt-3, M-CSFR, c-Ret, ROR1, ROR2, Tie-1, Tie-2, TrkA, TrkB, TrkC, VEGFR1, VEGFR2, VEGFR3, MuSK, EphA1, EphA2, EphA3, EphA4, EphA6, EphA7, EphB1, EphB2, EphB4, EphB6. This array was used as an RTK capture assay for determining pIGF-1R levels."}, "MDA-MB-231 cells": {"test_system": "MDA-MB-231 cells", "experiment": "Caspase 3/7 Glo apoptosis assay, MDA-MB-231", "format": "cell-based, human", "conditions": "24 hours", "method": "Apoptosis measurements were captured 24 hours after dosing, and apoptosis was assayed by measurement of caspase 3/7 activity. Measurement of apoptosis: Induction of apoptosis as measured by increased Caspase 3/7 activity was determined using the Caspase 3/7 Glo assay (Promega Corporation, Madison, Wis.). Cell lines were seeded at a density of 3000 cells per well in a 96-well plate. 24 hours after plating cells were dosed with varying concentrations of drug, either as a single agent or in combination. The signal for Caspase 3/7 Glo was determined 24 hours after dosing. The caspase 3/7 activity was normalized to cell number per well, using a parallel plate treated with Cell Titer Glo (Promega Corporation, Madison, Wis.). Signal for each well was normalized using the following formula: Caspase 3/7 Glo luminescence units/Cell Titer Glo fraction of DMSO control."}, "[3]": {"test_system": "Akt phosphorylation (pAkt-S473)", "experiment": "Western blotting of Akt phosphorylation, MDA-MB-231"}, "IR": {"test_system": "IR", "experiment": "Proteome Profiler RTK capture array, pIR in A673", "format": "cell-based, human", "conditions": "for phosphorylation of IR, single agent: OSI-906 3 μM, Doxorubicin 500 nM, MAB391 10 ug/ml", "method": "as §1, §2"}, "Akt [4]": {"test_system": "Akt", "experiment": "Western blotting of Akt phosphorylation, H292", "format": "cell-based, human", "conditions": "H292 in vitro; 30 nM paclitaxel; 2, 6, 24 hours", "method": "H292 cells were treated with 30 nM paclitaxel (in the presence and absence of 3 μM OSI-906), and the phosphorylation state for Akt was determined by Western blotting."}, "IGF-1R [5]": {"test_system": "IGF-1R", "experiment": "In vivo pharmacodynamic study, pIGF-1R in H292 xenografts", "conditions": "mice bearing H292 xenografts; 24 mg/kg paclitaxel; 24 hours", "method": "B. Mice bearing H292 xenografts were treated with 24 mg/kg paclitaxel for 24 hours prior to harvesting tumors. Tumors were profiled for pIGF-1R levels using the RTK capture array, in duplicate. Four separate animals were used: Control (Ctrl) A1; Control (Ctrl) A2; Paclitaxel-treated A1; and Paclitaxel-treated A2.\nProteome profiler arrays housing 42 different RTKs were purchased from R&D systems (Minneapolis, Minn.) and processed according to the manufacturer's protocol. […] This array was used as an RTK capture assay for determining pIGF-1R levels.\nFemale athymic nude nu/nu CD-1 mice (6-8 wks, 22-29 g) were obtained from Charles River Laboratories (Wilmington, Mass.). Animals were allowed to acclimate for a minimum of one week prior to initiation of a study. Throughout the studies, animals were allowed sterile rodent chow and water ad libitum, and animals were maintained under specific pathogen free conditions.\nNCI—H292 NSCLC tumor cells were harvested from cell culture flasks during exponential cell growth, washed twice with sterile PBS, counted and resuspended in PBS to a suitable concentration before s.c. implantation on the right flank of female nu/nu CD-1 mice. Tumors were established to 200+/−50 mm in size before randomization into treatment groups. Paclitaxel or cisplatin were administered at the indicated dose, and tumors from treated mice were harvested at 24 hours after dosing. […]"}, "IGF-1R [6]": {"test_system": "IGF-1R", "experiment": "RTK capture array, pIGF-1R in H292 cells", "format": "cell-based, human", "method": "Also shown is the effect of taxol (100 nM) on IGF-1R phosphorylation for H292 and H358 tumor cells. Phosphorylation was captured 24 hours after dosing with taxol and realized using the Proteome Profiler™ RTK capture Array (R & D Systems).\nA. Effect of varying concentrations of taxol on pIGF-1R for H292 tumor cells. pIGF-1R was measured 24 hours after dosing and realized using the proteome profiler RTK capture array (R & D Systems).\nA. H292 NSCLC tumor cells were treated with 30 nM paclitaxel for varying time points, alone or in the presence of 3 μM OSI-906. The phosphorylation of IGF-1R was determined by an RTK capture array, in duplicate (pIGF-1R=phosphorylated IGF-1R).\nas §2"}, "IGF-1R [7]": {"test_system": "IGF-1R", "experiment": "RTK capture array, pIGF-1R in H358 cells", "conditions": "taxol 100 nM, 24 hours"}, "IGF-1R complex": {"test_system": "IGF-1R complex", "experiment": "phosphorylation of the IGF-1R complex in MDA-1186 (data not shown)", "format": "cell-based, human"}, "SK-ES-1 tumor cells [8]": {"test_system": "SK-ES-1 tumor cells", "experiment": "Cell Titer Glo overall cell growth, SK-ES-1", "format": "cell-based, human", "description": "Measurement of Cell Proliferation: Cell proliferation was determined using the Cell Titer Glo assay (Promega Corporation, Madison, Wis.). […] Using parallel replicate plates, the signal for Cell Titer Glo was determined 24 hours after dosing."}, "SK-ES-1 tumor cells [9]": {"test_system": "SK-ES-1 tumor cells", "experiment": "Caspase 3/7 Glo apoptosis assay, SK-ES-1", "format": "cell-based, human", "conditions": "in the presence of 1 μM doxorubicin, 24 hours", "method": "Effect of varying concentrations of OSI-906 (0, 300 nM, 1 μM, 3 μM, or 5 μM) on the induction of apoptosis for SK-ES-1 tumor cells, in the presence or absence of 1 μM doxorubicin. Apoptosis was determined by measuring caspase 3/7 activity (Caspase GlO™, Promega), and measurements were captured 24 hours after dosing. Measurement of apoptosis: Induction of apoptosis as measured by increased Caspase 3/7 activity was determined using the Caspase 3/7 Glo assay (Promega Corporation, Madison, Wis.). Cell lines were seeded at a density of 3000 cells per well in a 96-well plate. 24 hours after plating cells were dosed with varying concentrations of drug, either as a single agent or in combination. The signal for Caspase 3/7 Glo was determined 24 hours after dosing. The caspase 3/7 activity was normalized to cell number per well, using a parallel plate treated with Cell Titer Glo (Promega Corporation, Madison, Wis.). Signal for each well was normalized using the following formula: Caspase 3/7 Glo luminescence units/Cell Titer Glo fraction of DMSO control."}, "H322 tumor cells": {"test_system": "H322 tumor cells", "experiment": "Caspase 3/7 Glo apoptosis assay, H322", "format": "cell-based, human", "method": "(§3) The combination of varying concentrations of OSI-906 (30 nM-3 μM) with 3 nM Taxol on the induction of apoptosis at 24 hours post dosing (Caspase GlO™, Promega) was determined for a panel of 5 NSCLC tumor cell lines (H460, H292, H322, H358, and Calu6).\nMeasurement of apoptosis: Induction of apoptosis as measured by increased Caspase 3/7 activity was determined using the Caspase 3/7 Glo assay (Promega Corporation, Madison, Wis.). Cell lines were seeded at a density of 3000 cells per well in a 96-well plate. 24 hours after plating cells were dosed with varying concentrations of drug, either as a single agent or in combination. The signal for Caspase 3/7 Glo was determined 24 hours after dosing. The caspase 3/7 activity was normalized to cell number per well, using a parallel plate treated with Cell Titer Glo (Promega Corporation, Madison, Wis.). Signal for each well was normalized using the following formula: Caspase 3/7 Glo luminescence units/Cell Titer Glo fraction of DMSO control. All graphs were generated using PRISM® software (Graphpad Software, San Diego, Calif.)."}, "A673 tumor cells [10]": {"test_system": "A673 tumor cells", "experiment": "Cell Titer Glo overall cell growth, A673", "format": "cell-based, human", "conditions": "5 μM OSI-906, 48 hours, versus Bliss additivity", "method": "A. Effect of varying concentrations of doxorubicin, in the presence and absence of 5 μM OSI-906, on the proliferation of A673 tumor cells. Proliferation data were collected 48 hours after dosing and realized using the Cell Titer Glo™ assay (Promega). The dotted line in the plot represents the calculated theoretical expectation if the combination was additive in nature and was determined using the Bliss model for additivity. […] Measurement of Cell Proliferation: Cell proliferation was determined using the Cell Titer Glo assay (Promega Corporation, Madison, Wis.). Tumor cells were seeded at a density of 3000 cells per well in a 96-well plate. 24 hours after plating cells were dosed with varying concentrations of drug, either as a single agent or in combination. Using parallel replicate plates, the signal for Cell Titer Glo was determined 24 hours after dosing."}, "H460 tumor cells [11]": {"test_system": "H460 tumor cells", "experiment": "Cell Titer Glo overall cell growth, H460", "format": "cell-based, human", "method": "B. Effect of varying concentrations of taxol, alone or in the presence of 5 μM OSI-906 on overall cell growth. Overall cell growth was determined by the Cell Titer Glo™ assay (Promega) and measured 72 hours after dosing. The dotted line represents the theoretical expectation for additivity and was calculated using the Bliss model for additivity. Measurement of Cell Proliferation: Cell proliferation was determined using the Cell Titer Glo assay (Promega Corporation, Madison, Wis.). Tumor cells were seeded at a density of 3000 cells per well in a 96-well plate. 24 hours after plating cells were dosed with varying concentrations of drug, either as a single agent or in combination. Using parallel replicate plates, the signal for Cell Titer Glo was determined 24 hours after dosing."}, "H292 tumor cells": {"test_system": "H292 tumor cells", "experiment": "Caspase 3/7 Glo apoptosis assay, H292", "format": "cell-based, human", "conditions": "OSI-906 30 nM-3 μM with 50 uM cisplatin, 24 hours, compared with single agents", "method": "The combination of varying concentrations of OSI-906 (30 nM-3 μM) with 50 uM cisplatin on the induction of apoptosis at 24 hours post dosing (Caspase Glo, Promega) was determined for a panel of 5 NSCLC tumor cell lines (H460, H292, H322, H358, and Calu6). The fold induction in apoptosis greater than the sums achieved by the single agents is noted in the table.\n(§4) Measurement of apoptosis: Induction of apoptosis as measured by increased Caspase 3/7 activity was determined using the Caspase 3/7 Glo assay (Promega Corporation, Madison, Wis.). Cell lines were seeded at a density of 3000 cells per well in a 96-well plate. 24 hours after plating cells were dosed with varying concentrations of drug, either as a single agent or in combination. The signal for Caspase 3/7 Glo was determined 24 hours after dosing. The caspase 3/7 activity was normalized to cell number per well, using a parallel plate treated with Cell Titer Glo (Promega Corporation, Madison, Wis.). Signal for each well was normalized using the following formula: Caspase 3/7 Glo luminescence units/Cell Titer Glo fraction of DMSO control."}, "H460 tumor cells [12]": {"test_system": "H460 tumor cells", "experiment": "Caspase 3/7 Glo apoptosis assay, H460", "format": "cell-based, human", "conditions": "24 hours", "method": "as §3\nA. Effect of varying concentrations of OSI-906, alone or in the presence of 12 nM Taxol, on apoptosis for H460 tumor cells. Apoptosis was measured 24 hours after dosing and determined by caspase 3/7 activity (Caspase GlO™, Promega). […] The dotted line represents the theoretical expectation for additivity and was calculated using the Bliss model for additivity.\nas §4"}, "H358 tumor cells": {"test_system": "H358 tumor cells", "experiment": "Caspase 3/7 Glo apoptosis assay, H358", "format": "cell-based, human", "conditions": "Taxol 3 nM, 24 hours", "method": "as §3\nThe effect of varying concentrations of OSI-906 (0, 0.3 nM, 1 μM, 3 μM, and 5 μM) on apoptosis in the presence or absence of Taxol (3 nM) for H292 and H358 NSCLC tumor cell lines. Apoptosis measurements were determined by measuring caspase 3/7 activity (Caspase GlO™, Promega) and were captured 24 hours after dosing.\nas §4"}, "MDA-1186 tumor cells": {"test_system": "MDA-1186 tumor cells", "experiment": "Caspase 3/7 Glo apoptosis assay, MDA-1186", "format": "cell-based, human", "method": "The effect of varying concentrations of OSI-906 (0, 0.3 nM, 1 uM, 3 μM, and 5 μM) on apoptosis in the presence or absence of Taxol (10 nM) or cisplatin (50 μM) for the MDA-1186 SCCHN tumor cell line. Apoptosis measurements were determined by measuring caspase 3/7 activity (Caspase Glo, Promega) and were captured 24 and 48 hours after dosing.\nas §4"}, "A673 tumor cells [13]": {"test_system": "A673 tumor cells", "experiment": "Caspase 3/7 Glo apoptosis assay, A673", "format": "cell-based, human", "conditions": "in the presence of doxorubicin (333 nM or 1 uM), listed as OSI-906", "description": "FIG. 3: OSI-906 synergizes with doxorubicin to inhibit cell growth and survival in A673 ES (Ewing's Sarcoma) tumor cells. A. Effect of varying concentrations of doxorubicin, in the presence and absence of 5 μM OSI-906, on the proliferation of A673 tumor cells. Proliferation data were collected 48 hours after dosing and realized using the Cell Titer Glo™ assay (Promega). The dotted line in the plot represents the calculated theoretical expectation if the combination was additive in nature and was determined using the Bliss model for additivity. B. Effect of varying concentrations of OSI-906 (0, 300 nM, and 1 μM) on the induction of apoptosis for A673 tumor cells, in the presence or absence of 333 nM doxorubicin. Apoptosis was determined by measuring caspase 3/7 activity (Caspase GlO™, Promega), and measurements were captured 48 hours after dosing.\nFIG. 5: OSI-906 has the potential to promote greater synergy with doxorubicin in ES tumor cells than neutralizing IGF-1R antibodies. Effect of varying concentrations of OSI-906 (0, 300 nM, 1 μM, and 3 μM) or the IGF-1R neutralizing antibody α-IR3 (10 ug/ml) on the induction of apoptosis for A673 tumor cells, in the presence or absence of 333 nM or 1 uM doxorubicin. Apoptosis was determined by measuring caspase 3/7 activity (Caspase GlO™, Promega), and measurements were captured 24 hours after dosing."}},
  "note": "Several values for one entry are separate records, joined by “and”; a condition that tells them apart may be missing. Identical values can stand only once. Entries after “also recorded” stand apart in the source; their conditions may differ.",
  "data": [
    {"smiles": "COc1cccc2c1C(=O)c1c(O)c3c(c(O)c1C2=O)C[C@@](O)(C(=O)CO)C[C@@H]3O[C@H]1C[C@H](N)[C@H](O)[C@H](C)O1", "note": "[doxorubicin, reference compound]", "values": [
      {"measurement": "Akt pathway activity / activation state, single agent", "setting": "Akt [1]", "value": "increase in the activation states for both Akt and Erk"},
      {"measurement": "MAPK (Erk) pathway activity / activation state, single agent", "setting": "Erk", "value": "increase in the activation states for both Akt and Erk"},
      {"measurement": "phosphorylation of IGF-1R, single agent", "setting": "IGF-1R [2]", "value": "promotes an upregulation of the phosphorylation state for both IR and IGF-1R"},
      {"measurement": "induction in apoptosis (caspase 3/7 activity), single agent", "setting": "MDA-MB-231 cells; doxorubicin alone", "value": "only a small induction in apoptosis"},
      {"measurement": "Akt phosphorylation (pAkt-S473), single agent", "setting": "[3]; 24 hours", "value": "promotes an increase in Akt phosphorylation"},
      {"measurement": "phosphorylation of IR, single agent", "setting": "IR", "value": "promotes an upregulation of the phosphorylation state for both IR and IGF-1R"}
    ]},
    {"smiles": "CC(=O)O[C@H]1C(=O)[C@@]2(C)[C@H]([C@H](OC(=O)c3ccccc3)[C@]3(O)C[C@H](OC(=O)[C@H](O)[C@@H](NC(=O)c4ccccc4)c4ccccc4)C(C)=C1C3(C)C)[C@]1(OC(C)=O)CO[C@@H]1C[C@@H]2O", "note": "[taxol, paclitaxel]", "values": [
      {"measurement": "pAkt over time", "setting": "Akt [4]", "value": "modest increase in the Akt survival pathway, however this pathway is further driven upon prolonged 6 hour exposure to paclitaxel"},
      {"measurement": "pIGF-1R levels in tumors", "setting": "IGF-1R [5]", "value": "upregulated"},
      {"measurement": "IGF-1R phosphorylation", "setting": "IGF-1R [6]; H292, taxol 100 nM, 24 hours", "value": "promote an increase in IGF-1R phosphorylation"},
      {"measurement": "pIGF-1R over time", "setting": "IGF-1R [6]; H292 in vitro, 30 nM paclitaxel, 2 and 6 hours", "value": "time-dependent increase in pIGF-1R"},
      {"measurement": "EC50", "setting": "IGF-1R [6]; Homo sapiens, NCI-H292, H292, 24 hours after dosing, read-out: EC50 for promoting phosphorylation of IGF-1R", "value": 10, "unit": "nM"},
      {"measurement": "IGF-1R phosphorylation", "setting": "IGF-1R [7]", "value": "Only in H292 tumor cells did taxol promote an increase in IGF-1R phosphorylation"},
      {"measurement": "phosphorylation of the IGF-1R complex", "setting": "IGF-1R complex", "value": "promote phosphorylation of the IGF-1R complex"}
    ]},
    {"smiles": "CC1(O)CC(c2nc(-c3ccc4ccc(-c5ccccc5)nc4c3)c3c(N)nccn23)C1", "note": "(stereo not drawn) [Compound D, cis-3-[8-amino-1-(2-phenyl-quinolin-7-yl)-imidazo[1,5-a]pyrazin-3-yl]-1-methyl-cyclobutanol]", "values": [
      {"measurement": "Akt activation state, co-treatment with doxorubicin", "setting": "Akt [1]; OSI-906 3 uM plus doxorubicin", "value": "gain in activity can be inhibited upon co-treatment with OSI-906"},
      {"measurement": "Akt pathway activity / activation state, single agent", "setting": "Akt [1]", "value": "achieves inhibition of both pathways"},
      {"measurement": "overall cell growth, combination with doxorubicin", "setting": "SK-ES-1 tumor cells [8]", "value": "synergistic promotion of apoptosis and inhibition of overall cell growth"},
      {"measurement": "apoptosis (caspase 3/7 activity), combination with doxorubicin", "setting": "SK-ES-1 tumor cells [9]", "value": "synergistic promotion of apoptosis"},
      {"measurement": "apoptosis gain, combination with taxol", "setting": "H322 tumor cells; OSI-906 30 nM-3 μM with 3 nM Taxol, 24 hours", "value": "> 2", "unit": "fold"},
      {"measurement": "induction of apoptosis, combination with paclitaxel", "setting": "H322 tumor cells; paclitaxel and OSI-906", "value": "synergistic induction of apoptosis"},
      {"measurement": "Erk activation state, co-treatment with doxorubicin", "setting": "Erk; OSI-906 3 uM plus doxorubicin", "value": "gain in activity can be inhibited upon co-treatment with OSI-906"},
      {"measurement": "MAPK (Erk) pathway activity / activation state, single agent", "setting": "Erk", "value": "achieves inhibition of both pathways"},
      {"measurement": "phosphorylation of IGF-1R, single agent", "setting": "IGF-1R [2]", "value": "achieves inhibition for both pIR and pIGF-1R"},
      {"measurement": "phosphorylation of IGF-1R, combination with doxorubicin", "setting": "IGF-1R [2]; with Doxorubicin 500 nM", "value": "blocked upon co-treatment with OSI-906"},
      {"measurement": "overall cell growth, combination with doxorubicin", "setting": "A673 tumor cells [10]", "value": "synergistic promotion of apoptosis and inhibition of overall cell growth"},
      {"measurement": "overall cell growth, combination with taxol", "setting": "H460 tumor cells [11]; 5 μM OSI-906 with taxol, 72 hours, versus Bliss additivity", "value": "greater than additive inhibition of overall cell growth"},
      {"measurement": "overall cell growth, single agent", "setting": "H460 tumor cells [11]; OSI-906 alone", "value": "fails to promote apoptosis or significantly inhibit cell growth"},
      {"measurement": "induction in apoptosis (caspase 3/7 activity), combination", "setting": "MDA-MB-231 cells; 1 μM doxorubicin and 0.3 μM compound D", "value": "about 3 fold"},
      {"measurement": "increase in apoptosis (apoptosis gain), combination with cisplatin", "setting": "H292 tumor cells", "value": "> 3 fold and > 2 fold"},
      {"measurement": "apoptosis, single agent", "setting": "H460 tumor cells [12]; OSI-906 alone", "value": "fails to promote apoptosis or significantly inhibit cell growth"},
      {"measurement": "apoptosis, combination with taxol", "setting": "H460 tumor cells [12]; in the presence of 12 nM Taxol, listed as OSI-906", "value": "synergistic promotion of apoptosis and inhibition of cell survival; also recorded: increase the pro-apoptotic effects of doxorubicin"},
      {"measurement": "synergy for the combination of OSI-906 and taxol (apoptosis)", "setting": "H358 tumor cells", "value": "observed for H292, but not H358"},
      {"measurement": "apoptosis, single agent", "setting": "MDA-1186 tumor cells; OSI-906 alone", "value": "did not achieve significant apoptosis as a single agent"},
      {"measurement": "apoptosis, combination with taxol", "setting": "MDA-1186 tumor cells; Taxol 10 nM, 24 and 48 hours, listed as OSI-906", "value": "promoted a dose dependent increase in apoptosis; also recorded: synergistic induction of apoptosis"},
      {"measurement": "Akt phosphorylation (pAkt-S473), combination with doxorubicin", "setting": "[3]; combination of doxorubicin and Compound D", "value": "efficacious at inhibiting the increase in Akt phosphorylation provoked by doxorubicin"},
      {"measurement": "apoptosis (caspase 3/7 activity), combination with doxorubicin", "setting": "A673 tumor cells [13]", "value": "synergistic promotion of apoptosis; also recorded: synergistic increase in doxorubicin-mediated apoptosis; also recorded: extent of cooperativity appears to be greater at higher concentrations of OSI-906, i.e. 3 μM, than that achieved maximally by a-IR3; also recorded: synergistic induction of apoptosis"},
      {"measurement": "phosphorylation of IR, single agent", "setting": "IR", "value": "achieves inhibition for both pIR and pIGF-1R"},
      {"measurement": "phosphorylation of IR, combination with doxorubicin", "setting": "IR; with Doxorubicin 500 nM", "value": "blocked upon co-treatment with OSI-906"}
    ]}
  ]
}
